Measured values: patent publication US10800806B2, “Sterol derivatives and use thereof for treating diseases involving transformed astrocyte cells or for treating malignant haemopathies” (BETA INNOV, priority 2012, dated 2020)

How the values were obtained:
[1] = test system: GBMs (rat line C6); details: in vitro; cited from earlier work
[2] = test system: human glioblastoma lines (GBM, line U-87 MG); assay: Anti-GBM activity in vitro on cultures of human U87-MG cells, cell aggregates (CA); assay type: cell-based
Experimental: (§1) Plastic flat-bottomed 96-well culture plates (NUNC, USA) treated for cell culture (Sigma-Aldrich, ref. 114754) are used; 1500 cells are seeded per well in 200 μl of culture medium. At the time of treatment, 100 μl of pure culture medium, 100 μl of culture medium containing ethanol, or liposomes, or 100 μl of culture medium containing the active ingredients are added per well; the final volume of the culture medium, after treatment, is therefore 300 μl for all the wells.
The human glioblastoma lines (GBM, line U-87 MG) and their culture medium (Eagle's Minimum Essential Medium or EMEM) were obtained from ATCC (USA, ref. ATCC-HTB-14). Culture of the cells is started and maintained according to the recommendations of the ATCC. These lines are commonly used “in vitro” and “in vivo” for testing anti-GBM potential. The doubling time of these lines is 16 h.
The active ingredients are either dissolved in absolute ethanol (AnalaR, NORMAPUR, VWR, France) or in the form of a liposomal solution, such as 10 μl of the stock solutions diluted in 990 μl and then added to the culture wells ([…] medium per well BI-GBM: 300 μl).
(§2) When the active ingredients are in ethanolic solution, the culture medium contains […] ethanol (v/v).
Briefly, the compounds to be tested, namely the compounds according to the invention (active ingredients) or 7β-OHCH—C3-ester (a derivative of 7beta-hydroxysterol esterified in position 3 with an oleate group, the synthesis of which is described by Rakotoarivelo et al. (18) and used as control), soya phosphatidylcholine (Sigma) as well as cholesteryl-3-sulphate (Sigma) are taken from their stock solutions prepared from dichloroethane in the case of the active ingredients and the 7β-OHCH—C3-ester, a chloroform:methanol mixture (9:1, v/v) in the case of phosphatidylcholine and chloroform in the case of cholesteryl-3-sulphate. The molar ratios are 1 M/0.1 M/0.25 M for phosphatidylcholine, cholesteryl-3-sulphate and the 7β-OHCH—C3-ester and the active ingredients respectively.
After evaporation, a solution of PBS saline, without Ca^2+ and Mg^2+, pH7.2 (BioRad) is added to the dry compound. The volume of buffer and the mass of the products are adjusted so that 20 or 10 μl of liposomes added to 90 μl of culture medium gives the desired final concentrations. The liposomes are formed by the extrusion technique with Liposofast (Sodexim, SA Muizon, France). The solution is passed through polycarbonate filtration membranes (100 nm) 41 times. The liposomes are sterilized by filtration on […] Millipore membranes.
(§3) For example, in the case of the cultures in 96-well plates and as a function of the magnification of the microscope used (objectives×10 or ×20, oculars×10), a photograph taken represents a field of view with a diameter equal to 1/5 of the diameter of a well. Therefore the total number of cells in a well is equal to […] the number of cells per photograph. This technique was compared with a standard technique (trypsinization of the cell layer, centrifugation of the cells, suspension of the cells in physiological saline solution and counting with a THOMA cell) in the case of the C6 cells. The results obtained are identical for both methods.
(§4) The culture medium is withdrawn from each well and 50 μl of Laemmli buffer (0.1 ml of Tris, 0.8 ml of glycerol, 1.6 mL of 10% SDS, 8 ml q.s.f ultrapure water) is added per well.
This test makes it possible to detect the cellular respiration, especially the mitochondrial respiration. The stock solution of tetrazolium salt MTT (3-(4,5-dimethylthiazol-2-yl)-2,5-diphenyl tetrazolium bromide, Sigma-Aldrich, USA, ref. M5655) is prepared with 10 mg of MIT/ml of PBS buffer (phosphate-buffered saline, SIGMA, ref. D 1408). This solution is added directly to the culture medium in each well; the final concentration of MTT is 25 μg/ml. The plate is then incubated at 37° C. for at least 1 h. […]

[3] = test system: immortalized (spontaneously transformed) rat astrocyte lines; details: in vitro; cited from earlier work
[4] = Solubility in ethanol; assay type: physicochemical; details: ethanolic form
[5] = test system: CD133+ stem cells (U87-MG cultures); assay: Immunolabelling of the CD133+ stem cells with the A/B peroxidase system; assay type: cell-based, human; details: for CD133+ cells, percentage relative to the controls: 80 μM in liposomal form; for destruction of the CD133+ stem cells: liposomal form
Experimental: The anti-CD133 (poly, Abnova), anti-GFAP (poly, Sigma), anti-NFL (mono, Santa Cruz) and anti-fibroblast (ERTR7, Santa Cruz) primary antibodies are diluted to 1/100 in the case of the first three antibodies and to 1/50 in the case of the last.
The secondary antibodies corresponding to recognition of the primary antibodies are anti-rabbit antibodies coupled to peroxidase (goat, Sigma), anti-mouse coupled to Dylight 488 (sheep, Sigma), anti-mouse coupled to Dylight 488 (sheep, Sigma) and anti-rat coupled to FITC (rabbit, Sigma). The dilutions are 1/4000, 1/1000, 1/4000 and 1/400 respectively.
The cells are permeabilized for 5 min with 0.1% Triton X-100 (Sigma) in PBS (Fisher Scientific). The nonspecific sites are blocked with 2% BSA (Sigma) in PBS. Incubations are carried out for 1 h at ambient temperature, 48 h at 4° C., 24 h at 4° C. and 1 h at ambient temperature for the anti-CD133, anti-GFAP, anti-NFL and anti-Fibroblast antibodies respectively. Incubation with the secondary antibodies is carried out for 1 h at ambient temperature. The CD133 positive cells are detected by the DAB/H2O2 system (Sigma), and observed with an optical microscope.
The immunolabelling is carried out as described above (section II, A).

[6] = test system: C6 cells; assay: Anti-GBM activity in vitro on cultures of C6 cells (cell counting, protein assay, MTT test); assay type: cell-based, rat
Experimental: as §1
The cultures are incubated in a Sanyo incubator (Japan, model MCO-19AlC-UV) at 37° C. and in an atmosphere with 5% CO2 and saturated in humidity. The cells are observed with an inverted microscope (Nikon Eclipse TS100, Japan) and the photographs are taken with a camera (DIGITAL camera with c-mount; LABOVER, France). The culture hood is a microbiological safety hood MSC (thermo SCIENTIFIC, model HERA SAFE KS12, France).
The type C6 cell line was obtained by Benda et al. (16) from rat brain tumours, induced by N-methylnitrosourea. This cell type is used as “in vitro” and “in vivo” model for evaluating anti-GBM potential. The lines originate from the former Strasbourg Neurochemistry Centre (U44 INSERM and UPR 416 CNRS).
The culture medium is made up of 70% Minimum Essential Medium (MEM; (Fischer Scientifique, ref. 61100) and 30% Hanks solution (SIGMA, ref. H 9269). The following are added to the culture medium: foetal calf serum (FCS; Fischer Scientifique, ref. 10108165) at a final concentration of 5% (v/v), an antibiotic solution of ciprofloxacin hydrochloride 5 μg/mL (EUROMEDEX, ref. UC5074) and a solution of Fungizone 2.5 μg/mL (INVITROGEN, ref. 15290-026). The doubling time of this cell type is 17 h. • GBM lines of human origin
The active ingredients are either dissolved in absolute ethanol (AnalaR, NORMAPUR, VWR, France) or in the form of a liposomal solution, such as 10 μl of the stock solutions diluted in 990 μl and then added to the culture wells (200 μl of culture medium) giving concentrations of 30.0, 15.0, 7.5 and 3.3 μM (final volume of culture medium per well BI-GBM: 300 μl).
as §2
A method of cell counting on photographs was used.
as §3, §4
In control wells, 10 μl of a solution of bovine serum albumin range (crystallized BSA, Sigma) is added; the range is from 0 to 20 μg per well. The wells are then supplemented with 40 μl of Laemmli buffer. Finally, 200 μl of solution of BCA reagent is added (Pierce, USA; BCA Protein Assay Kit; ThemoScientific, France).
The culture plates are incubated for 30 min at 37° C. The optical density for each well is read and quantified by a plate reader (BioRad, USA, iMark Microplate reader 12222) at 570 nm.
This test makes it possible to detect the cellular respiration, especially the mitochondrial respiration. The stock solution of tetrazolium salt MTT (3-(4,5-dimethylthiazol-2-yl)-2,5-diphenyl tetrazolium bromide, Sigma-Aldrich, USA, ref. M5655) is prepared with 10 mg of MIT/ml of PBS buffer (phosphate-buffered saline, SIGMA, ref. D 1408). […]

[7] = test system: Neuroblastoma (line SH-SY5Y, ATCC-CRL-2266); assay: Activity in vitro on human neuroblastomas; assay type: cell-based; details: 22 μM once, concentrated liposomal form, 28 days of treatment
Experimental: They were obtained from the ATCC collection (Ref. ATCC-CRL-2266). The culture conditions are based on the recommendations in the ATCC information leaflet. • Chronic Myelomonocytic Leukaemia (CMML)
The neuroblastomas were treated with empty liposomes (controls) or with liposomes containing molecule 1.b or 2.b, 24 h after starting the culture. The cells are treated once with 22 μM of molecule 1.b or 22 μM of molecule 2.b. The liposomal form is concentrated.
For the control cells, the upper left hand photograph marked with the letter A was taken after 7 days of treatment; the lower left hand photograph marked with the letter B was taken after 28 days of treatment.
For the cells treated with the concentrated liposomal molecule 1.b, the photograph marked with the letter C (in the middle, at the top) was taken after 7 days of treatment and the photograph marked with the letter D (in the middle, at the bottom) after 28 days of treatment. For the cells treated with the concentrated liposomal molecule 2.b, the upper right hand photograph marked with the letter E was taken after 7 days of treatment.

CC(C)CCC[C@@H](C)[C@H]1CC[C@H]2[C@@H]3[C@@H](O)C=C4C[C@@H](O)CC[C@]4(C)[C@H]3CC[C@]12C [7β-OHCH, 7β-Hydroxycholesterol]
cytotoxicity [1]: remarkable cytotoxicity | death of GBMs ([2]; control experiments at the very low levels formed from molecule 2.b): do not induce any death of GBMs | cytotoxicity [3]: remarkable cytotoxicity

CCCCCCCC/C=C\CCCCCCCC(=O)O[C@H]1CC[C@@]2(C)C(=C[C@H](O)[C@H]3[C@@H]4CC[C@H]([C@H](C)CCCC(C)C)[C@@]4(C)CC[C@@H]32)C1 [7β-OHCH—C3-ester]
solubility in ethanol (concentration above which no longer soluble) [4]: ≤ 30 µM | CD133+ cells, percentage relative to the controls ([5]; 4 days of treatment): 100% | CD133+ cells, percentage relative to the controls ([5]; 22 days of treatment): 50% | destruction of the CD133+ stem cells [5]: This is not the case | destruction of the CD133+ stem cells ([5]; listed as 7beta-OHCH-C3-ester): does not completely destroy the CD 133+ | action on the GBMs (CA) ([2]; ethanolic form): does not act | anti-tumour activity ([2]; ethanolic form): no anti-tumour activity is observed | efficacy on increasing the dose ([2]; liposomal form): not better, or even decreases | reduction of the level of proteins relative to the untreated control cells ([2]; liposomal form): 85% | MTT/cell ratio ([2]; liposomal form, 80 μM): does not vary | action on the GBMs (CA) ([2]; liposomal form, 80 μM): only acts in liposomal form | cell multiplication after replacing the medium with fresh drug-free medium ([2]; liposomal form, medium replaced on the 13th day of treatment): cell multiplication is observed | increase in the MTT test after removal of the drug ([2]; medium replaced on the 13th day, two days later): 40%

CC(C)CCCC(C)C1CCC2C3C(OC(=O)OC(C)(C)C)C=C4CC(OC(=O)C(C)NC(=O)CNC(=O)OCc5ccccc5)CCC4(C)C3CCC12C (centres unmarked) [Molecule 1.a, 7-((tert-butoxycarbonyl)oxy)-10,13-dimethyl-17-(6-methylheptan-2-yl)-2,3,4,7,8,9,10,11,12,13,14,15,16,17-tetradecahydro-1H-cyclopenta[a]phenanthren-3-yl 2-(2-(((benzyloxy)carbonyl)amino)acetamido)propanoate]
increase of the MTT/cell ratio relative to the control cultures ([6]; 15 μM, 19 days of treatment): 20% | reduction of the number of cells, the level of proteins and the MTT assay ([6]; 15 μM, ethanolic form, 14 days of treatment): 30% | reduction of the number of cells, the level of proteins and the MTT assay ([6]; 15 μM, ethanolic form, 19 days of treatment): ≥ 97% | dose-dependence ([6]; 7.5 and 3.3 μM, 19 days of treatment): dose-dependence is also observed | Live residual cells ([6]; 15 μm, ethanol 3%): 3% | cytotoxicity ([6]; ethanolic form, after 19 days of treatment): cytotoxic

CC(=O)OC1C=C2CC(OC(=O)C(C)NC(=O)CNC(=O)OCc3ccccc3)CCC2(C)C2CCC3(C)C(C(C)CCCC(C)C)CCC3C12 (centres unmarked) [Molecule 1.b, 7-acetoxy-10,13-dimethyl-17-(6-methylheptan-2-yl)-2,3,4,7,8,9,10,11,12,13,14,15,16,17-tetradecahydro-1H-cyclopenta[a]phenanthren-3-yl 2-(2-(((benzyloxy)carbonyl)amino)acetamido)propanoate]
toxicity to neuroblastoma cells compared to the control cells [7]: toxic to almost all the cells
